From US9168266B2, “Hybrid diazeniumdiolated compounds, pharmaceutical compositions, and method of treating cancer” (The United States of America, as represented by the …, priority 2011, dated 2015)
Where two headings read alike, the source gives them in different places.

Tests used:
PARP enzyme = biological target: T1, PARP enzyme (Homo sapiens, UniProt P09874); assay: PARP enzyme inhibition, HT Universal Colorimetric PARP assay kit with GSH; type: biochemical; conditions: GSH 1 mM added to activate prodrugs; absorbance 450 nm
T1 construct: purchased Trevigen, Gaithersburg, Md
T1 sequence (P09874 whole entry): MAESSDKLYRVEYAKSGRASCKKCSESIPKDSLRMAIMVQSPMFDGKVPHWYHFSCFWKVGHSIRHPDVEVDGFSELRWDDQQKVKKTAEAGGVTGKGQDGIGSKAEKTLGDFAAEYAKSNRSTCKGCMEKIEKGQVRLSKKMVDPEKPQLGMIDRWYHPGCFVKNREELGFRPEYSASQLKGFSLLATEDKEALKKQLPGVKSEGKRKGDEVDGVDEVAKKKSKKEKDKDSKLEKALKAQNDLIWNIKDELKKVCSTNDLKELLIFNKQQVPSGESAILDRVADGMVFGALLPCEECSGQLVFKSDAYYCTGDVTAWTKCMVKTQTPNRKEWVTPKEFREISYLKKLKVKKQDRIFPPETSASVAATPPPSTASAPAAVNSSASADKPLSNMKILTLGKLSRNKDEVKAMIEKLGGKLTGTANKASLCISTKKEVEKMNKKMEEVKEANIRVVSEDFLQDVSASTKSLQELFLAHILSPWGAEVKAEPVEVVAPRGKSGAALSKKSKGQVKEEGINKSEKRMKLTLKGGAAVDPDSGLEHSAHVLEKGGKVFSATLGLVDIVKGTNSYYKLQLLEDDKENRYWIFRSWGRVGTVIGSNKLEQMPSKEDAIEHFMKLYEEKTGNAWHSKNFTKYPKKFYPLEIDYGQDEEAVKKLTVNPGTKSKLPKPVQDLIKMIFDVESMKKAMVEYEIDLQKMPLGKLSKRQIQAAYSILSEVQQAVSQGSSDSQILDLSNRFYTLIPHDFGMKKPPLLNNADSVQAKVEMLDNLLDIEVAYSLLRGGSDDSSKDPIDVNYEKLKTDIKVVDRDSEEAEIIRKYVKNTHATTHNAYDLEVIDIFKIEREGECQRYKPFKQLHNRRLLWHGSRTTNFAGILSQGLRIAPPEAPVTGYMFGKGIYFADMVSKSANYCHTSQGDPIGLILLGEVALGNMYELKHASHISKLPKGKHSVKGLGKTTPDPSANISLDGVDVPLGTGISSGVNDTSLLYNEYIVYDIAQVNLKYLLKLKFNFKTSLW
Experimental: PARP enzyme inhibition was measured using HT Universal Colorimetric 96-well PARP assay kit (Trevigen, Gaithersburg, Md.), according to manufacturer's protocol with small modifications. GSH (1 mM final concentration) was added to the wells containing inhibitors, to allow activation of the prodrugs. The absorbance at 450 nm was measured.

A549 = assay: MTT cell proliferation assay; type: cell-based; conditions: A549, 72 h
Experimental: (§1) Cell lines were obtained from the American Type Culture Collection (Manassas, Va.) and cultured according to the supplier's protocol. For proliferation assays cells were seeded at 1×10^4 per well (H1693, H322M, H1703, H1944, H1355, H2122, H441, H1568) or 5×10^3 per well (H460, H1792, A549, H2023, H2030, H23) in 96-well plates and allowed to adhere for 24 h. Compounds were prepared as 10 mM stock solutions in DMSO. Increasing drug concentrations in 10 μl of PBS were added to 100 μl of the culture medium for 72 h. MTT assay (Promega, Madison, Wis.) was performed according to the manufacturer's protocol. Each concentration was represented in six repeats, and the screening was performed as at least two independent experiments. IC50 values were calculated by using Sigma Plot software (Systat Software, Inc., San Jose, Calif.).

H1355 = assay: MTT cell proliferation assay; type: cell-based
Experimental: as §1

H1568 = assay: MTT cell proliferation assay; type: cell-based
Experimental: as §1

H1693 = assay: MTT cell proliferation assay; type: cell-based
Experimental: as §1

H1703 = assay: MTT cell proliferation assay; type: cell-based
Experimental: as §1

H1792 = assay: MTT cell proliferation assay; type: cell-based
Experimental: as §1

H1944 = assay: MTT cell proliferation assay; type: cell-based
Experimental: as §1

H2023 = assay: MTT cell proliferation assay; type: cell-based
Experimental: as §1

H2030 = assay: MTT cell proliferation assay; type: cell-based
Experimental: as §1

H2122 = assay: MTT cell proliferation assay; type: cell-based
Experimental: as §1

H23 = assay: MTT cell proliferation assay; type: cell-based
Experimental: as §1

H322M = assay: MTT cell proliferation assay; type: cell-based; conditions: 72 h
Experimental: as §1

H441 = assay: MTT cell proliferation assay; type: cell-based
Experimental: as §1

H460 = assay: MTT cell proliferation assay; type: cell-based, human
Experimental: as §1

[1] = test system: H1703 lung adenocarcinoma cells; assay: Intracellular NO release, DAF-FM diacetate fluorescence; type: cell-based; conditions: 10 μM; for intracellular NO release (DAF fluorescence): 30 min, H1703 cells; for cell permeability: inferred from intracellular NO release
Experimental: The intracellular level of nitric oxide after treatment with the compounds JS-59-183 or JS-60-178 was quantified by using the NO-sensitive fluorophore 4-amino-5-methylamino-2,7 difluorofluorescein (DAF-FM) diacetate (Invitrogen, Carlsbad, Calif.). Cells growing on six-well plates were loaded with 2.5 μM DAF-FM diacetate in HBSS at 37° C. and 5% CO2. After 30 min of incubation, the cells were rinsed with HBSS to remove excess probe, and compounds in fresh HBSS was added to the cells at 10 μM final concentration. After 30 min incubation, the fluorescence of the benzotriazole derivative formed on DAF-FM's reaction with aerobic NO was analyzed by using a PerkinElmer Life and Analytical Sciences LS50B luminescence spectrometer with the excitation source at 495 nm and emission at 515 nm. All experiments were performed at least three times, each time at least in triplicate.

[2] = test system: H1703 lung adenocarcinoma cells; assay: Intracellular ROS/RNS level, DCF fluorescence; type: cell-based; conditions: 10 μM, 60 min, versus DMSO
Experimental: Intracellular level of reactive oxygen/nitrogen species was quantified by the oxidation of the ROS/RNS-sensitive fluorophore 5-(and-6)-chloromethyl-2′,7′-dichlorodihydrofluorescein diacetate (Invitrogen, Carlsbad, Calif.). Cells growing on six-well plates (6×10^5/well) were loaded with 5 μM 5-(and-6)-chloromethyl-2′,7′-dichlorodihydrofluorescein diacetate in Hanks' balanced salt solution (HBSS) at 37° C. and 5% CO2. After 30 min of incubation, HBSS containing the probe was removed, cells were rinsed with HBSS, and 3 ml of fresh HBSS was added to each well followed by the addition of compounds (10 μM) or DMSO as a control. After 60 min, the cells were collected by scraping in HBSS, and 2′,7′-dichlorofluorescein (DCF) fluorescence was measured by using a PerkinElmer Life and Analytical Sciences (Waltham, Mass.) LS50B luminescence spectrometer with the excitation source at 488 nm and emission at 530 nm.

NSCLC cells [3] = assay: Western blot for cleaved caspase 7 (apoptosis); type: cell-based; conditions: 10 μm, DMSO control
Experimental: (§2) The alkaline comet assay was performed as described (Romanowska et al., Free Radical Biol. Med., 43: 1145-1155 (2007)). Western blot analysis was performed as described previously (Maciag et al., J. Pharmacol. Exp. Ther., 336: 313-320 (2011)). Primary antibodies for cleaved caspase 7 (Cell Signaling Technology, Danvers, Mass.) were used.

NSCLC cell lines = assay: MTT cell proliferation assay, panel summary; type: cell-based; conditions: range over the NSCLC cell lines, 72 h, read-out: IC50 for growth inhibition across NSCLC cell lines
Experimental: as §1

NSCLC cells [4] = assay: Alkaline comet assay (DNA strand breaks); type: cell-based
Experimental: as §2

O=C(c1cccc(Cc2n[nH]c(=O)c3ccccc23)c1)N1CCN([N+]([O-])=NOc2ccc([N+](=O)[O-])cc2[N+](=O)[O-])CC1 [JS-59-183, 2,4-dinitrophenyl 4-[5-[(4-oxo-3H-phthalazin-1-yl)methyl]-benzoyl]piperazine-1-yl-1-ium-1,2-diolate]
IC50 (PARP enzyme): 0.00825 µM | IC50 (A549): 16.8 µM | TGI (total growth inhibition) (A549): 26.0 µM | IC50 (H1355; H1355, 72 h): 11.4 µM | TGI (total growth inhibition) (H1355; H1355, 72 h): 23.0 µM | IC50 (H1568; H1568, 72 h): 6.5 µM | TGI (total growth inhibition) (H1568; H1568, 72 h): 9.0 µM | IC50 (H1693; H1693, 72 h): 5.3 µM | TGI (total growth inhibition) (H1693; H1693, 72 h): 7.3 µM | IC50 (H1703; H1703, 72 h): 6.8 µM | TGI (total growth inhibition) (H1703; H1703, 72 h): 11.2 µM | IC50 (H1792; H1792, 72 h): 14 µM | TGI (total growth inhibition) (H1792; H1792, 72 h): 20.0 µM | IC50 (H1944; H1944, 72 h): 14 µM | TGI (total growth inhibition) (H1944; H1944, 72 h): 28.0 µM | TGI (total growth inhibition) (H2023; H2023, 72 h, MTT): 32.5 µM | IC50 (H2023; H2023, 72 h, MTT, read-out: IC50): 19.4 µM | IC50 (H2030; H2030, 72 h): 13.8 µM | TGI (total growth inhibition) (H2030; H2030, 72 h): 25.0 µM | IC50 (H2122; H2122, 72 h): 11.2 µM | TGI (total growth inhibition) (H2122; H2122, 72 h): 25.0 µM | TGI (total growth inhibition) (H23; H23, 72 h, MTT): 15.2 µM | IC50 (H23; H23, 72 h, MTT, read-out: IC50): 7.5 µM | TGI (total growth inhibition) (H322M; H322M, MTT): 14.0 µM | IC50 (H322M; H322M, MTT, read-out: IC50): 9 µM | IC50 (H441; H441, 72 h): 8.1 µM | TGI (total growth inhibition) (H441; H441, 72 h): 11.7 µM | IC50 (H460; H460, 72 h): 13.8 µM | TGI (total growth inhibition) (H460; H460, 72 h): 24.8 µM | intracellular NO release (DAF fluorescence) [1]: decompose within the cell releasing NO | cell permeability [1]: cell permeable | ROS generation (DCF fluorescence) [2]: increase in ROS generation | apoptotic signal (cleaved caspase 7) (NSCLC cells [3]): strong apoptotic signal

O=C(c1cc(Cc2n[nH]c(=O)c3ccccc23)ccc1F)N1CCN([N+]([O-])=NOc2ccc([N+](=O)[O-])cc2[N+](=O)[O-])CC1 [JS-60-178, 2,4-dinitrophenyl 4-[2-fluoro-5-[(4-oxo-3H-phthalazin-1-yl)methyl]-benzoyl]piperazine-1-yl-1-ium-1,2-diolate]
IC50 (PARP enzyme): 0.0029 µM | TGI (total growth inhibition) (A549): 22.0 µM | IC50 (A549; Homo sapiens): 13.5 µM | TGI (total growth inhibition) (H1355; H1355, 72 h): 15.0 µM | IC50 (H1355; Homo sapiens, NCI-H1355, H1355, 72 h): 8.2 µM | TGI (total growth inhibition) (H1568; H1568, 72 h): 4.0 µM | IC50 (H1568; NCI-H1568, H1568, 72 h): 3 µM | TGI (total growth inhibition) (H1693; H1693, 72 h): 6.6 µM | IC50 (H1693; Homo sapiens, NCI-H1693, H1693, 72 h): 5.4 µM | TGI (total growth inhibition) (H1703; H1703, 72 h): 6.7 µM | IC50 (H1703; Homo sapiens, NCI-H1703, H1703, 72 h): 4.3 µM | TGI (total growth inhibition) (H1792; H1792, 72 h): 19.0 µM | IC50 (H1792; Homo sapiens, NCI-H1792, H1792, 72 h): 12.7 µM | TGI (total growth inhibition) (H1944; H1944, 72 h): 19.0 µM | IC50 (H1944; Homo sapiens, NCI-H1944, H1944, 72 h): 10.5 µM | TGI (total growth inhibition) (H2023; H2023, 72 h, MTT): 25.0 µM | IC50 (H2023; NCI-H2023, H2023, 72 h, MTT, read-out: IC50): 15 µM | TGI (total growth inhibition) (H2030; H2030, 72 h): 15.2 µM | IC50 (H2030; Homo sapiens, NCI-H2030, H2030, 72 h): 9.2 µM | TGI (total growth inhibition) (H2122; H2122, 72 h): 11.0 µM | IC50 (H2122; Homo sapiens, NCI-H2122, H2122, 72 h): 7.5 µM | TGI (total growth inhibition) (H23; H23, 72 h, MTT): 12.3 µM | IC50 (H23; Homo sapiens, NCI-H23, H23, 72 h, MTT, read-out: IC50): 8.4 µM | TGI (total growth inhibition) (H322M; H322M, MTT): 11.6 µM | IC50 (H322M; Homo sapiens, NCI-H322M, H322M, MTT, read-out: IC50): 7.9 µM | TGI (total growth inhibition) (H441; H441, 72 h): 6.2 µM | IC50 (H441; Homo sapiens, NCI-H441, H441, 72 h): 4.5 µM | TGI (total growth inhibition) (H460; H460, 72 h): 24.0 µM | IC50 (H460; Homo sapiens, NCI-H460, H460, 72 h): 16.4 µM | IC50 (NSCLC cell lines): 3 to 20 µM | intracellular NO release (DAF fluorescence) [1]: decompose within the cell releasing NO | cell permeability [1]: cell permeable | ROS generation (DCF fluorescence) [2]: increase in ROS generation | comet signal compared with Olaparib (20 μm) (NSCLC cells [4]; 5 μM, 24 hours): stronger comet signal | DNA strand break damage by Comet assay (NSCLC cells [4]; 24 hours treatment): significant DNA strand break damage | apoptotic signal (cleaved caspase 7) (NSCLC cells [3]): strong apoptotic signal

O=C(c1cc(Cc2n[nH]c(=O)c3ccccc23)ccc1F)N1CCN(C(=O)C2CC2)CC1 [Olaparib, olaparib, reference compound]
TGI (total growth inhibition) (A549): 100 µM | TGI (total growth inhibition) (H1355; H1355, 72 h): 113 µM | TGI (total growth inhibition) (H1568; H1568, 72 h): 113 µM | TGI (total growth inhibition) (H1693; H1693, 72 h): 65 µM | TGI (total growth inhibition) (H1792; H1792, 72 h): 38 µM | TGI (total growth inhibition) (H1944; H1944, 72 h): 88 µM | TGI (total growth inhibition) (H2023; H2023, 72 h, MTT): 85 µM | IC50 (H2023; NCI-H2023, 72 h): 20 µM | TGI (total growth inhibition) (H2030; H2030, 72 h): 117 µM | TGI (total growth inhibition) (H2122; H2122, 72 h): 140 µM | TGI (total growth inhibition) (H23; H23, 72 h, MTT): 70 µM | IC50 (H23; Homo sapiens, NCI-H23, 72 h): 10 µM | TGI (total growth inhibition) (H322M; H322M, MTT): 360 µM | IC50 (H322M; Homo sapiens, NCI-H322M): 50 µM | TGI (total growth inhibition) (H441; H441, 72 h): 84 µM | TGI (total growth inhibition) (H460; H460, 72 h): 37 µM | apoptotic signal (cleaved caspase 7) (NSCLC cells [3]): did not trigger apoptosis
